Reference: ChEMBL document CHEMBL1143950, “Antifungal and cytotoxic activities of some N-substituted aniline derivatives bearing a hetaryl fragment” (Bioorg Med Chem, 2008)
In brackets after ≈: the same amount, converted by molar mass.

Tests used:
Cryptococcus neoformans [1] = assay: Antifungal activity against Cryptococcus neoformans IM 983040 by micro-broth dilution method; type: functional
Cryptococcus neoformans [2] = assay: Antifungal activity against Cryptococcus neoformans IM 972724 by micro-broth dilution method; type: functional
Cryptococcus neoformans [3] = assay: Antifungal activity against Cryptococcus neoformans IM 042074 by micro-broth dilution method; type: functional
Cryptococcus neoformans [4] = assay: Antifungal activity against Cryptococcus neoformans IM 983036 by micro-broth dilution method; type: functional
Cryptococcus neoformans [5] = assay: Antifungal activity against Cryptococcus neoformans IM 00319 by microbroth dilution method; type: functional
Cryptococcus neoformans [6] = assay: Antifungal activity against Cryptococcus neoformans IM 972751 by microbroth dilution method; type: functional
Cryptococcus neoformans [7] = assay: Antifungal activity against Cryptococcus neoformans IM 031631 by micro-broth dilution method; type: functional
Cryptococcus neoformans [8] = assay: Antifungal activity against Cryptococcus neoformans IM 031706 by micro-broth dilution method; type: functional
Cryptococcus neoformans [9] = assay: Antifungal activity against Cryptococcus neoformans IM 961951 by micro-broth dilution method; type: functional
Candida albicans = assay: Antifungal activity against Candida albicans ATCC 10231 by micro-broth dilution method; type: functional
Candida tropicalis = assay: Antifungal activity against Candida tropicalis C131 by micro-broth dilution method; type: functional
Saccharomyces cerevisiae = assay: Antifungal activity against Saccharomyces cerevisiae ATCC 9763 by microbroth dilution method; type: functional
Cryptococcus neoformans [10] = assay: Antifungal activity against Cryptococcus neoformans ATCC 32264 by microbroth dilution method; type: functional
Aspergillus fumigatus = assay: Antifungal activity against Aspergillus fumigatus ATCC 26934 by micro-broth dilution method; type: functional
Aspergillus flavus = assay: Antifungal activity against Aspergillus flavus ATCC 9170 by micro-broth dilution method; type: functional
Trichophyton rubrum = assay: Antifungal activity against Trichophyton rubrum C113 by microbroth dilution method; type: functional
Aspergillus niger = assay: Antifungal activity against Aspergillus niger ATCC 9029 by micro-broth dilution method; type: functional
Nannizzia gypsea = assay: Antifungal activity against Microsporum gypseum C115 by microbroth dilution method; type: functional
[11] = tested on: Trichophyton mentagrophytes; assay: Antifungal activity against Trichophyton mentagrophytes ATCC 9972 by micro-broth dilution method; type: functional
MCF7 = assay: Cytotoxicity against human MCF7 cells by SRB assay; type: functional, cell-based
NCI-H460 = assay: Cytotoxicity against human H460 cells by SRB assay; type: functional, cell-based
SF-268 = assay: Cytotoxicity against human SF268 cells by SRB assay; type: functional, cell-based

| SMILES | MIC (Cryptococcus neoformans [1]) [µg/mL] | MIC (Cryptococcus neoformans [2]) [µg/mL] | MIC (Cryptococcus neoformans [3]) [µg/mL] | MIC (Cryptococcus neoformans [4]) [µg/mL] | MIC (Cryptococcus neoformans [5]) [µg/mL] | MIC (Cryptococcus neoformans [6]) [µg/mL] | MIC (Cryptococcus neoformans [7]) [µg/mL] | MIC (Cryptococcus neoformans [8]) [µg/mL] | MIC (Cryptococcus neoformans [9]) [µg/mL] | MIC (Candida albicans) [µg/mL] | MIC (Candida tropicalis) [µg/mL] | MIC (Saccharomyces cerevisiae) [µg/mL] | MIC (Cryptococcus neoformans [10]) [µg/mL] | MIC (Aspergillus fumigatus) [µg/mL] | MIC (Aspergillus flavus) [µg/mL] | MIC (Trichophyton rubrum) [µg/mL] | MIC (Aspergillus niger) [µg/mL] | MIC (Nannizzia gypsea) [µg/mL] | MIC [11] [µg/mL] | IC50 (NCI-H460) [µg/mL] | further results |
| --- | --- | --- | --- | --- | --- | --- | --- | --- | --- | --- | --- | --- | --- | --- | --- | --- | --- | --- | --- | --- | --- |
| CCC(C)n1ncn(-c2ccc(N3CCN(c4ccc(OCC5COC(Cn6cncn6)(c6ccc(Cl)cc6Cl)O5)cc4)CC3)cc2)c1=O (centres undefined) [ITRACONAZOLE] | < 0.015 | 0.25 (≈ 0.354 µM) | < 0.015 | < 0.015 | < 0.015 | 0.25 (≈ 0.354 µM) | 0.5 (≈ 0.709 µM) | < 0.015 | < 0.015 | – | – | – | – | – | – | – | – | – | – | – | – |
| Clc1ccc(NCc2ccco2)cc1Cl | 100 (≈ 413 µM) | 25 (≈ 103 µM) | 25 (≈ 103 µM) | 25 (≈ 103 µM) | 100 (≈ 413 µM) | 100 (≈ 413 µM) | 100 (≈ 413 µM) | 100 (≈ 413 µM) | 100 (≈ 413 µM) | 62.5 (≈ 258 µM) | 62.5 (≈ 258 µM) | 50 (≈ 207 µM) | 25 (≈ 103 µM) | 50 (≈ 207 µM) | 50 (≈ 207 µM) | 3.12 (≈ 12.9 µM) | 62.5 (≈ 258 µM) | 6.25 (≈ 25.8 µM) | 12.5 (≈ 51.6 µM) | 8.7 (≈ 35.9 µM) | IC50 (MCF7): 8 µg/mL (≈ 33 µM); IC50 (SF-268): 8.2 µg/mL (≈ 33.9 µM) |
| COc1cccc2c1C(=O)c1c(O)c3c(c(O)c1C2=O)C[C@@](O)(C(=O)CO)C[C@@H]3O[C@H]1C[C@H](N)[C@H](O)[C@H](C)O1 [DOXORUBICIN] | – | – | – | – | – | – | – | – | – | – | – | – | – | – | – | – | – | – | – | 0.18 (≈ 0.331 µM) | IC50 (SF-268): 0.14 µg/mL (≈ 0.258 µM) |
| OC(Cn1cncn1)(Cn1cncn1)c1ccc(F)cc1F [FLUCONAZOLE] | 7.8 (≈ 25.5 µM) | 3.9 (≈ 12.7 µM) | 3.9 (≈ 12.7 µM) | 15.6 (≈ 50.9 µM) | 1.9 (≈ 6.2 µM) | 31.2 (≈ 102 µM) | 31.2 (≈ 102 µM) | 3.9 (≈ 12.7 µM) | 7.8 (≈ 25.5 µM) | – | – | – | – | – | – | – | – | – | – | – | – |
| C[C@@H](c1ncncc1F)[C@](O)(Cn1cncn1)c1ccc(F)cc1F [VORICONAZOLE] | < 0.015 | < 0.015 | < 0.015 | < 0.015 | 0.03 (≈ 0.0859 µM) | 0.25 (≈ 0.716 µM) | 0.5 (≈ 1.43 µM) | 0.015 (≈ 0.0429 µM) | 0.03 (≈ 0.0859 µM) | – | – | – | – | – | – | – | – | – | – | – | – |
| Nc1nc(=O)[nH]cc1F [FLUCYTOSINE] | 7.8 (≈ 60.4 µM) | 3.9 (≈ 30.2 µM) | 3.9 (≈ 30.2 µM) | – | 15.6 (≈ 121 µM) | 7.8 (≈ 60.4 µM) | 7.8 (≈ 60.4 µM) | 3.9 (≈ 30.2 µM) | 7.8 (≈ 60.4 µM) | – | – | – | – | – | – | – | – | – | – | – | – |
| O=[N+]([O-])c1cccc(NCc2ccncc2)c1 | – | – | – | – | – | – | – | – | – | 100 (≈ 436 µM) | 100 (≈ 436 µM) | 50 (≈ 218 µM) | 50 (≈ 218 µM) | 100 (≈ 436 µM) | 200 (≈ 872 µM) | 6.25 (≈ 27.3 µM) | 100 (≈ 436 µM) | 12.5 (≈ 54.5 µM) | 12.5 (≈ 54.5 µM) | > 10 | IC50 (MCF7): > 10 µg/mL; IC50 (SF-268): < 10 µg/mL |
| Ic1ccc(NCc2ccncc2)cc1 | 100 (≈ 322 µM) | 25 (≈ 80.6 µM) | 50 (≈ 161 µM) | 50 (≈ 161 µM) | 50 (≈ 161 µM) | 50 (≈ 161 µM) | 50 (≈ 161 µM) | 100 (≈ 322 µM) | 100 (≈ 322 µM) | 50 (≈ 161 µM) | 50 (≈ 161 µM) | 50 (≈ 161 µM) | 25 (≈ 80.6 µM) | 50 (≈ 161 µM) | 100 (≈ 322 µM) | 6.25 (≈ 20.2 µM) | 50 (≈ 161 µM) | 12.5 (≈ 40.3 µM) | 12.5 (≈ 40.3 µM) | > 10 | IC50 (MCF7): > 10 µg/mL; IC50 (SF-268): > 10 µg/mL |
| C=CCC(Nc1ccc(C)cc1)c1ccco1 (centres undefined) | – | – | – | – | – | – | – | – | – | > 250 | > 250 | > 250 | > 250 | > 250 | > 250 | > 250 | > 250 | > 250 | > 250 | – | – |
| O=[N+]([O-])c1cccc(NCc2cccnc2)c1 | – | – | – | – | – | – | – | – | – | > 250 | > 250 | > 250 | > 250 | > 250 | > 250 | 25 (≈ 109 µM) | > 250 | 25 (≈ 109 µM) | 25 (≈ 109 µM) | – | – |
